According to US9850283B2, “Macrocyclic inhibitors of the PD-1/PD-L1 and CD80(B7-1)/PD-L1 protein/protein interactions” (BRISTOL-MYERS SQUIBB COMPANY, priority 2013, dated 2017):
Positions of bridges follow the written chain, without caps; N, C: chain ends. Non-standard residues stand in square brackets, D forms with d. Residues, ends and D or L forms follow the SMILES beside them. Bta = N[C@@H](Cc1csc2ccccc12)C(=O)O; Hyp = O=C(O)[C@@H]1C[C@@H](O)CN1; NMeNle = CCCC[C@H](NC)C(=O)O; NMeA = CN[C@@H](C)C(=O)O; Dab = NCC[C@H](N)C(=O)O; Dap = NC[C@H](N)C(=O)O

Key:
[1] = target: T1, LK35.2-hPD-L1 cells / PE-labeled PD-1-Ig (Homo sapiens, UniProt Q9NZQ7); experiment: LK35.2-hPD-L1 cell binding high-content screening assay; format: cell-based; settings: cluster symbol; cell line of CBA not given (LK35.2-hPD-L1 or 293T-hPD-L1); read-out: CBA IC50 cluster
T1 construct: expressed in transfected cells; host or cells: LK35.2 mouse B cell line
In short: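 Compound effect on PD-1/PD-L1 binding is measured by imaging cell-associated phycoerythrin signal. Human PD-1-Ig (PE on Ig tag, 1 nM final) is applied with compound to a murine B cell line overexpressing human PD-L1 for 1 h at 37 °C in serum-containing RPMI.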

Human PD-L1/PD-1 = target: T2, Human PD-L1/PD-1 (Homo sapiens, UniProt Q9NZQ7); experiment: HTRF PD-1-Ig/PD-L1-His binding assay (human PD-L1); settings: cluster symbol; read-out: HTRF IC50 cluster
T2 construct: made in house; host or cells: HEK293T
In short: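 Readout: time-resolved FRET between Eu cryptate-labeled anti-Ig (1 nM final) and APC-labeled anti-His (20 nM final) antibodies. These detect interaction of Fc-fused PD-1 with His-tagged human PD-L1 in dPBS containing 0.1% BSA and 0.05% Tween-20.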

T1 sequence (Q9NZQ7 19-290): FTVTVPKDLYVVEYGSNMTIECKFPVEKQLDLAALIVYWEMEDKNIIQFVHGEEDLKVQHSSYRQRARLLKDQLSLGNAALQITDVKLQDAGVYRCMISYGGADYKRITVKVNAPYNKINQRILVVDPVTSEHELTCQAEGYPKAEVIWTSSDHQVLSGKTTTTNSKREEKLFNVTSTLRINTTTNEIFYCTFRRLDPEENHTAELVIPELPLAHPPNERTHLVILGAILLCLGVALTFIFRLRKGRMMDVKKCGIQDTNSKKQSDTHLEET
T2 sequence (Q9NZQ7 with tags, fused parts or gaps): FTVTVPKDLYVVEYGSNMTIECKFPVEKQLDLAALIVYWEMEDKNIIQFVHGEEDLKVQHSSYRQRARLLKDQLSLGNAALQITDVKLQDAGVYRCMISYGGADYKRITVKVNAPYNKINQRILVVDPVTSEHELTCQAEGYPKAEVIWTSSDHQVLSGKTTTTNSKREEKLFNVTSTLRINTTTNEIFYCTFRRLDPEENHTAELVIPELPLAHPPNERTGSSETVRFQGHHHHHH

Row | IC50 [1] | IC50 (Human PD-L1/PD-1) | SMILES
1 | 0.158 to 4.71 nM | 0.385 to 6.74 nM | CCCC[C@H]1C(=O)N(C)[C@@H](CCCC)C(=O)N[C@@H](C)C(=O)N[C@H](C(=O)NCC(N)=O)CSCC(=O)N[C@@H](Cc2ccc(O)cc2)C(=O)N(C)[C@@H](C)C(=O)N[C@@H](CC(=O)O)C(=O)N2CCC[C@H]2C(=O)N[C@@H](CCN)C(=O)N[C@@H](CC(C)C)C(=O)N2C[C@H](O)C[C@H]2C(=O)N[C@@H](Cc2c[nH]c3ccccc23)C(=O)N[C@@H](CO)C(=O)N[C@@H](Cc2c[nH]c3ccccc23)C(=O)N1C [Example 1158] ({CH2CO}-Y[NMeA]DP[Dab]L[Hyp]WSW[NMeNle][NMeNle]ACG-NH2; thioether N-14)
2 | 0.158 to 4.71 nM | 6.76 to 30.3 nM | CCCC[C@H]1C(=O)N(C)[C@@H](CCCC)C(=O)N[C@@H](CCCNC(=N)N)C(=O)N[C@H](C(=O)NCC(N)=O)CSCC(=O)N[C@@H](Cc2ccc(O)cc2)C(=O)N(C)[C@@H](C)C(=O)N[C@@H](CC(N)=O)C(=O)N2CCC[C@H]2C(=O)N[C@@H](Cc2cnc[nH]2)C(=O)N[C@@H](CCC(=O)O)C(=O)N2C[C@H](O)C[C@H]2C(=O)N[C@@H](Cc2c[nH]c3ccccc23)C(=O)N[C@@H](CO)C(=O)N[C@@H](Cc2c[nH]c3ccccc23)C(=O)N1C [Example 1159] ({CH2CO}-Y[NMeA]NPHE[Hyp]WSW[NMeNle][NMeNle]RCG-NH2; thioether N-14)
3 | 0.158 to 4.71 nM | 0.385 to 6.74 nM | CCCC[C@H]1C(=O)N(C)[C@@H](CCCC)C(=O)N[C@@H](CN)C(=O)N[C@H](C(=O)NCC(N)=O)CSCC(=O)N[C@@H](Cc2ccc(O)cc2)C(=O)N(C)[C@@H](C)C(=O)N[C@@H](CC(N)=O)C(=O)N2CCC[C@H]2C(=O)N[C@@H](CN)C(=O)N[C@@H](CC(C)C)C(=O)N2C[C@H](O)C[C@H]2C(=O)N[C@@H](Cc2c[nH]c3ccccc23)C(=O)N[C@@H](CO)C(=O)N[C@@H](Cc2csc3ccccc23)C(=O)N1C [Example 1161] ({CH2CO}-Y[NMeA]NP[Dap]L[Hyp]WS[Bta][NMeNle][NMeNle][Dap]CG-NH2; thioether N-14)
4 | 0.158 to 4.71 nM | 0.385 to 6.74 nM | CCCC[C@H]1C(=O)N(C)[C@@H](CCCC)C(=O)N[C@@H](CN)C(=O)N[C@H](C(=O)NCC(N)=O)CSCC(=O)N[C@@H](Cc2ccc(O)cc2)C(=O)N(C)[C@@H](C)C(=O)N[C@@H](CC(N)=O)C(=O)N2CCC[C@H]2C(=O)N[C@@H](CN)C(=O)N[C@@H](CCC(=O)O)C(=O)N2C[C@H](O)C[C@H]2C(=O)N[C@@H](Cc2c[nH]c3ccccc23)C(=O)N[C@@H](CO)C(=O)N[C@@H](Cc2csc3ccccc23)C(=O)N1C [Example 1162] ({CH2CO}-Y[NMeA]NP[Dap]E[Hyp]WS[Bta][NMeNle][NMeNle][Dap]CG-NH2; thioether N-14)
5 | 4.78 to 72.9 nM | 6.76 to 30.3 nM | CCCC[C@H]1C(=O)N(C)[C@@H](CCCC)C(=O)N[C@@H](C)C(=O)N[C@H](C(=O)NCC(N)=O)CSCC(=O)N[C@@H](Cc2ccc(O)cc2)C(=O)N(C)[C@@H](C)C(=O)N[C@@H](CCC(=O)O)C(=O)N2CCC[C@H]2C(=O)N[C@@H](Cc2cnc[nH]2)C(=O)N[C@@H](CC(C)C)C(=O)N2CCC[C@H]2C(=O)N[C@@H](Cc2c[nH]c3ccccc23)C(=O)N[C@@H](CO)C(=O)N[C@@H](Cc2c[nH]c3ccccc23)C(=O)N1C [Example 1164] ({CH2CO}-Y[NMeA]EPHLPWSW[NMeNle][NMeNle]ACG-NH2; thioether N-14)
6 | 0.158 to 4.71 nM | 0.385 to 6.74 nM | CCCC[C@H]1C(=O)N(C)[C@@H](CCCC)C(=O)N[C@@H](C)C(=O)N[C@H](C(=O)NCC(N)=O)CSCC(=O)N[C@@H](Cc2ccc(O)cc2)C(=O)N(C)[C@@H](C)C(=O)N[C@@H](CC(=O)O)C(=O)N2CCC[C@H]2C(=O)N[C@@H](Cc2cnc[nH]2)C(=O)N[C@@H](CC(C)C)C(=O)N2C[C@H](O)C[C@H]2C(=O)N[C@@H](Cc2c[nH]c3ccccc23)C(=O)N[C@@H](CO)C(=O)N[C@@H](Cc2c[nH]c3ccccc23)C(=O)N1C [Example 1165]
7 | 0.158 to 4.71 nM | 0.385 to 6.74 nM | CCCC[C@H]1C(=O)N(C)[C@@H](CCCC)C(=O)N[C@@H](CCCNC(=N)N)C(=O)N[C@H](C(=O)NCC(N)=O)CSCC(=O)N[C@@H](Cc2ccc(O)cc2)C(=O)N(C)[C@@H](C)C(=O)N[C@@H](CC(=O)O)C(=O)N2CCC[C@H]2C(=O)N[C@@H](Cc2cnc[nH]2)C(=O)N[C@@H](CC(C)C)C(=O)N2C[C@H](O)C[C@H]2C(=O)N[C@@H](Cc2c[nH]c3ccccc23)C(=O)N[C@@H](CO)C(=O)N[C@@H](Cc2c[nH]c3ccccc23)C(=O)N1C [Example 1166] ({CH2CO}-Y[NMeA]DPHL[Hyp]WSW[NMeNle][NMeNle]RCG-NH2; thioether N-14)
8 | 0.158 to 4.71 nM | 0.385 to 6.74 nM | CCCC[C@H]1C(=O)N(C)[C@@H](CCCC)C(=O)N[C@@H](CCCNC(=N)N)C(=O)N[C@H](C(=O)NCC(N)=O)CSCC(=O)N[C@@H](Cc2ccc(O)cc2)C(=O)N(C)[C@@H](C)C(=O)N[C@@H](CCC(=O)O)C(=O)N2CCC[C@H]2C(=O)N[C@@H](Cc2cnc[nH]2)C(=O)N[C@@H](CC(C)C)C(=O)N2CCC[C@H]2C(=O)N[C@@H](Cc2c[nH]c3ccccc23)C(=O)N[C@@H](CO)C(=O)N[C@@H](Cc2c[nH]c3ccccc23)C(=O)N1C [Example 1167] ({CH2CO}-Y[NMeA]EPHLPWSW[NMeNle][NMeNle]RCG-NH2; thioether N-14)
9 | 0.158 to 4.71 nM | 0.385 to 6.74 nM | CCCC[C@H]1C(=O)N(C)[C@@H](CCCC)C(=O)N[C@@H](C)C(=O)N[C@H](C(=O)NCC(N)=O)CSCC(=O)N[C@@H](Cc2ccc(O)cc2)C(=O)N(C)[C@@H](C)C(=O)N[C@@H](CC(N)=O)C(=O)N2CCC[C@H]2C(=O)N[C@@H](Cc2cnc[nH]2)C(=O)N[C@@H](CCC(=O)O)C(=O)N2C[C@H](O)C[C@H]2C(=O)N[C@@H](Cc2c[nH]c3ccccc23)C(=O)N[C@@H](CO)C(=O)N[C@@H](Cc2c[nH]c3ccccc23)C(=O)N1C [Example 1168]
10 | 4.78 to 72.9 nM | 6.76 to 30.3 nM | CCCC[C@H]1C(=O)N(C)[C@@H](CCCC)C(=O)N[C@@H](C)C(=O)N[C@H](C(=O)NCC(N)=O)CSCC(=O)N[C@@H](Cc2ccc(O)cc2)C(=O)N(C)[C@@H](C)C(=O)N[C@@H](CCC(=O)O)C(=O)N2CCC[C@H]2C(=O)N[C@@H](Cc2cnc[nH]2)C(=O)N[C@@H](CC(C)C)C(=O)N2C[C@H](O)C[C@H]2C(=O)N[C@@H](Cc2c[nH]c3ccccc23)C(=O)N[C@@H](CO)C(=O)N[C@@H](Cc2c[nH]c3ccccc23)C(=O)N1C [Example 1169]
11 | 4.78 to 72.9 nM | 0.385 to 6.74 nM | CCCC[C@H]1C(=O)N(C)[C@@H](CCCC)C(=O)N[C@@H](C)C(=O)N[C@H](C(=O)NCC(N)=O)CSCC(=O)N[C@@H](Cc2ccc(O)cc2)C(=O)N(C)[C@@H](C)C(=O)N[C@@H](CC(N)=O)C(=O)N2CCC[C@H]2C(=O)N[C@@H](CN)C(=O)N[C@@H](CC(=O)O)C(=O)N2C[C@H](O)C[C@H]2C(=O)N[C@@H](Cc2c[nH]c3ccccc23)C(=O)N[C@@H](CO)C(=O)N[C@@H](Cc2c[nH]c3ccccc23)C(=O)N1C [Example 1170] ({CH2CO}-Y[NMeA]NP[Dap]D[Hyp]WSW[NMeNle][NMeNle]ACG-NH2; thioether N-14)
12 | 0.158 to 4.71 nM | 0.385 to 6.74 nM | CCCC[C@H]1C(=O)N(C)[C@@H](CCCC)C(=O)N[C@@H](C)C(=O)N[C@H](C(=O)NCC(N)=O)CSCC(=O)N[C@@H](Cc2ccc(O)cc2)C(=O)N(C)[C@@H](C)C(=O)N[C@@H](CC(N)=O)C(=O)N2CCC[C@H]2C(=O)N[C@@H](CN)C(=O)N[C@@H](CCC(=O)O)C(=O)N2C[C@H](O)C[C@H]2C(=O)N[C@@H](Cc2c[nH]c3ccccc23)C(=O)N[C@@H](CO)C(=O)N[C@@H](Cc2c[nH]c3ccccc23)C(=O)N1C [Example 1171] ({CH2CO}-Y[NMeA]NP[Dap]E[Hyp]WSW[NMeNle][NMeNle]ACG-NH2; thioether N-14)
